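Values below derive from 48-hour exposures of cells grown in 96-well plates, with endpoints linearly interpolated between the two concentrations bracketing the appropriate inhibition level. The concentration for full growth arrest is given as TGI.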
Key:
Assay in all cases: DTP human tumour cell line panel, 48 h
HCT-116 colon = test system: HCT-116 colon
ACHN renal = test system: ACHN renal
NCI-H226 lung = test system: NCI-H226 lung
786-0 renal = test system: 786-0 renal
SN12C renal = test system: SN12C renal
IGROV1 ovarian = test system: IGROV1 ovarian
HL-60(TB) leukemia = test system: HL-60(TB) leukemia
SF-268 CNS = test system: SF-268 CNS
SK-OV-3 ovarian = test system: SK-OV-3 ovarian
HOP-92 NSCLC = test system: HOP-92 NSCLC
KM12 colon = test system: KM12 colon
CAKI-1 renal = test system: CAKI-1 renal
NCI-H23 lung = test system: NCI-H23 lung
HOP-62 NSCLC = test system: HOP-62 NSCLC
MDA-MB-435 = test system: MDA-MB-435
MDA-MB-231 breast = test system: MDA-MB-231 breast
T-47D breast = test system: T-47D breast

Row | Structure (SMILES) | TGI (HCT-116 colon) | TGI (ACHN renal) | TGI (NCI-H226 lung) | TGI (786-0 renal) | TGI (SN12C renal) | TGI (IGROV1 ovarian) | TGI (HL-60(TB) leukemia) | TGI (SF-268 CNS) | TGI (SK-OV-3 ovarian) | TGI (HOP-92 NSCLC) | TGI (KM12 colon) | TGI (CAKI-1 renal) | TGI (NCI-H23 lung) | TGI (HOP-62 NSCLC) | TGI (MDA-MB-435) | TGI (MDA-MB-231 breast) | TGI (T-47D breast)
1 | CCCc1c(C(=O)OCC)[nH]c(-c2ccc(-c3[nH]c(C(=O)OCC)c(CCC)c3C(=O)OCC)o2)c1C(=O)OCC | > 100 µM | > 100 µM | > 100 µM | > 100 µM | > 100 µM | > 100 µM | > 100 µM | > 100 µM | > 100 µM | > 100 µM | > 100 µM | > 100 µM | > 100 µM | – | – | – | –
2 | COc1cc([C@@H]2c3cc4c(cc3[C@@H](NCc3ccccc3)C3COC(=O)[C@@H]32)OCO4)cc(OC)c1O (some centres not stated) | > 100 µM | 5.92 µM | 11.2 µM | 12.5 µM | 18.8 µM | > 92.3 µM | 10.1 µM | 61.5 µM | > 58.9 µM | 37.9 µM | 49.3 µM | 14.5 µM | 23.8 µM | 9.63 µM | – | – | –
3 | CC(=O)OCC1OC(n2c(=O)n(-c3ccccc3)c(=O)c3cc(Br)cc(Br)c32)C(OC(C)=O)C(OC(C)=O)C1OC(C)=O (configuration not stated) | > 100 µM | > 100 µM | > 100 µM | > 100 µM | > 100 µM | > 100 µM | > 100 µM | > 100 µM | > 100 µM | > 100 µM | > 100 µM | > 100 µM | > 100 µM | > 100 µM | – | – | –
4 | COc1ccc2c(c1)CC[C@@H]1[C@@H]2CC[C@]2(C)C(=O)/C(=C/c3ccncc3)C[C@@H]12 | > 100 µM | > 100 µM | > 100 µM | > 100 µM | > 100 µM | > 100 µM | – | > 100 µM | > 100 µM | 77.9 µM | 73.9 µM | > 100 µM | > 100 µM | 54.9 µM | 92.4 µM | > 100 µM | > 100 µM
5 | CC(C)c1c(O[Si](C(C)C)(C(C)C)C(C)C)c2c3c(ccc4c3c1OC4(C)C)C(C)CC2 (configuration not stated) | > 100 µM | > 100 µM | > 100 µM | > 100 µM | > 100 µM | > 100 µM | > 100 µM | > 100 µM | > 100 µM | > 100 µM | > 100 µM | > 100 µM | > 100 µM | > 100 µM | > 100 µM | > 100 µM | –
6 | C/C1=C\[C@H](C)C[C@H](C)OC(=O)C[C@H](c2ccc(O)cc2)NC(=O)[C@H](Cc2ccc(O)c(Br)c2)N(C)C(=O)[C@H](C)NC(=O)[C@@H](C)C1 | > 25 µM | > 25 µM | > 25 µM | > 25 µM | > 25 µM | > 25 µM | – | > 25 µM | > 25 µM | > 25 µM | > 25 µM | – | > 25 µM | > 25 µM | > 25 µM | > 25 µM | –
7 | COc1ccc(OC)c(-c2nc3ccccc3c(=O)[nH]2)c1 | > 100 µM | > 100 µM | > 100 µM | > 100 µM | > 100 µM | > 100 µM | – | > 100 µM | > 100 µM | – | > 100 µM | > 100 µM | > 100 µM | > 100 µM | > 100 µM | > 100 µM | > 100 µM
